System: 997726-040-R-J2-PDC tumor spheroids, viability
Experiment: Anticancer human tumor 997726-040-R-J2-PDC patient-derived squamous cell lung carcinoma cell line growth inhibition [PI3K]
Details: spheroids with HUVEC and MSC; for IC50: curve of first compound; for viability, T/C: stronger effect = lower value
Method in brief: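 Complex 3D spheroids (cancer cells + endothelial HUVEC + mesenchymal stem cells); drug pairs of targeted agent x inavolisib/alpelisib/duvelisib/copanlisib; half-log series from ~Cmax, max 10 microM if Cmax unknown; endpoint viability.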

[1] = second compound 0.0316 µM, first compound 0.0316 µM
[2] = second compound 0.0316 µM, first compound 0.1 µM
[3] = second compound 0.0316 µM, first compound 0.316 µM
[4] = second compound 0.0316 µM, first compound 1 µM
[5] = second compound 0.0316 µM, first compound 3.16 µM
[6] = second compound 0.0316 µM, first compound 10 µM
[7] = second compound 0.1 µM, first compound 0.0316 µM
[8] = second compound 0.1 µM, first compound 0.1 µM
[9] = second compound 0.1 µM, first compound 0.316 µM
[10] = second compound 0.1 µM, first compound 1 µM
[11] = second compound 0.1 µM, first compound 3.16 µM
[12] = second compound 0.1 µM, first compound 10 µM
[13] = second compound 0.316 µM, first compound 0.0316 µM
[14] = second compound 0.316 µM, first compound 0.1 µM
[15] = second compound 0.316 µM, first compound 0.316 µM
[16] = second compound 0.316 µM, first compound 1 µM
[17] = second compound 0.316 µM, first compound 3.16 µM
[18] = second compound 0.316 µM, first compound 10 µM
[19] = second compound 1 µM, first compound 0.0316 µM
[20] = second compound 1 µM, first compound 0.1 µM
[21] = second compound 1 µM, first compound 0.316 µM
[22] = second compound 1 µM, first compound 1 µM
[23] = second compound 1 µM, first compound 3.16 µM
[24] = second compound 1 µM, first compound 10 µM
[25] = second compound 3.16 µM, first compound 0.0316 µM
[26] = second compound 3.16 µM, first compound 0.1 µM
[27] = second compound 3.16 µM, first compound 0.316 µM
[28] = second compound 3.16 µM, first compound 1 µM
[29] = second compound 3.16 µM, first compound 3.16 µM
[30] = second compound 3.16 µM, first compound 10 µM
[31] = second compound 10 µM, first compound 0.0316 µM
[32] = second compound 10 µM, first compound 0.1 µM
[33] = second compound 10 µM, first compound 0.316 µM
[34] = second compound 10 µM, first compound 1 µM
[35] = second compound 10 µM, first compound 3.16 µM
[36] = second compound 10 µM, first compound 10 µM
[37] = second compound 0.0316 µM, first compound 0.00316 µM
[38] = second compound 0.0316 µM, first compound 0.01 µM
[39] = second compound 0.1 µM, first compound 0.00316 µM
[40] = second compound 0.1 µM, first compound 0.01 µM
[41] = second compound 0.316 µM, first compound 0.00316 µM
[42] = second compound 0.316 µM, first compound 0.01 µM
[43] = second compound 1 µM, first compound 0.00316 µM
[44] = second compound 1 µM, first compound 0.01 µM
[45] = second compound 3.16 µM, first compound 0.00316 µM
[46] = second compound 3.16 µM, first compound 0.01 µM
[47] = second compound 10 µM, first compound 0.00316 µM
[48] = second compound 10 µM, first compound 0.01 µM
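Note: spheroids exposed to compounds for seven days before readout.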

## CC(C)NCC(C(=O)N1CCN(c2ncnc3c2C(C)CC3O)CC1)c1ccc(Cl)cc1 (stereo not drawn) + Cc1nc(NC(=O)N2CCCC2C(N)=O)sc1-c1ccnc(C(C)(C)C(F)(F)F)c1
Second compound 0.0316 µM
  IC50: 269 nM
Second compound 0.1 µM
  IC50: 269 nM
Second compound 0.316 µM
  IC50: 120 nM
Second compound 1 µM
  IC50: < 31.6 nM
Second compound 3.16 µM
  IC50: < 31.6 nM
Second compound 10 µM
  IC50: < 31.6 nM
[1]
  viability, T/C: 73.4%
[2]
  viability, T/C: 65.9%
[3]
  viability, T/C: 47.7%
[4]
  viability, T/C: 23.8%
[5]
  viability, T/C: 12.7%
[6]
  viability, T/C: 8.8%
[7]
  viability, T/C: 71.6%
[8]
  viability, T/C: 66.8%
[9]
  viability, T/C: 46.6%
[10]
  viability, T/C: 25.9%
[11]
  viability, T/C: 15.2%
[12]
  viability, T/C: 10.6%
[13]
  viability, T/C: 55.9%
[14]
  viability, T/C: 52.5%
[15]
  viability, T/C: 39%
[16]
  viability, T/C: 22.4%
[17]
  viability, T/C: 11.2%
[18]
  viability, T/C: 9.52%
[19]
  viability, T/C: 49.5%
[20]
  viability, T/C: 37.2%
[21]
  viability, T/C: 34%
[22]
  viability, T/C: 21%
[23]
  viability, T/C: 10.5%
[24]
  viability, T/C: 6.76%
[25]
  viability, T/C: 33.2%
[26]
  viability, T/C: 27.5%
[27]
  viability, T/C: 25%
[28]
  viability, T/C: 16.5%
[29]
  viability, T/C: 7.98%
[30]
  viability, T/C: 4.28%
[31]
  viability, T/C: 15.8%
[32]
  viability, T/C: 10.9%
[33]
  viability, T/C: 10.7%
[34]
  viability, T/C: 5.86%
[35]
  viability, T/C: 3.95%
[36]
  viability, T/C: 3.36%

## CCN1CCN(Cc2ccc(Nc3ncc(F)c(-c4cc(F)c5nc(C)n(C(C)C)c5c4)n3)nc2)CC1 + Cc1nc(NC(=O)N2CCCC2C(N)=O)sc1-c1ccnc(C(C)(C)C(F)(F)F)c1
Second compound 0.0316 µM
  IC50: > 1000 nM
Second compound 0.1 µM
  IC50: 466 nM
Second compound 0.316 µM
  IC50: 7.34 nM
Second compound 1 µM
  IC50: < 3.16 nM
Second compound 3.16 µM
  IC50: < 3.16 nM
Second compound 10 µM
  IC50: < 3.16 nM
[37]
  viability, T/C: 82.8%
[38]
  viability, T/C: 79.5%
[1]
  viability, T/C: 61.5%
[2]
  viability, T/C: 69.5%
[3]
  viability, T/C: 58.3%
[4]
  viability, T/C: 59.8%
[39]
  viability, T/C: 76.7%
[40]
  viability, T/C: 71.1%
[7]
  viability, T/C: 67.3%
[8]
  viability, T/C: 55.2%
[9]
  viability, T/C: 52.3%
[10]
  viability, T/C: 46.3%
[41]
  viability, T/C: 52.5%
[42]
  viability, T/C: 51.8%
[13]
  viability, T/C: 45%
[14]
  viability, T/C: 39%
[15]
  viability, T/C: 37.1%
[16]
  viability, T/C: 41.1%
[43]
  viability, T/C: 40.8%
[44]
  viability, T/C: 39.5%
[19]
  viability, T/C: 37%
[20]
  viability, T/C: 30.9%
[21]
  viability, T/C: 29%
[22]
  viability, T/C: 33.8%
[45]
  viability, T/C: 29.9%
[46]
  viability, T/C: 27%
[25]
  viability, T/C: 26%
[26]
  viability, T/C: 22.9%
[27]
  viability, T/C: 23.4%
[28]
  viability, T/C: 19.5%
[47]
  viability, T/C: 16.9%
[48]
  viability, T/C: 12.3%
[31]
  viability, T/C: 10.3%
[32]
  viability, T/C: 10.9%
[33]
  viability, T/C: 11.9%
[34]
  viability, T/C: 11.2%

## C[C@@H](NC(=O)c1ncnc(N)c1Cl)c1ncc(C(=O)Nc2cc(C(F)(F)F)c(Cl)cn2)s1 + Cc1nc(NC(=O)N2CCCC2C(N)=O)sc1-c1ccnc(C(C)(C)C(F)(F)F)c1
Second compound 0.0316 µM
  IC50: > 10000 nM
Second compound 0.1 µM
  IC50: > 10000 nM
Second compound 0.316 µM
  IC50: > 10000 nM
Second compound 1 µM
  IC50: 58.9 nM
Second compound 3.16 µM
  IC50: < 31.6 nM
Second compound 10 µM
  IC50: < 31.6 nM
[1]
  viability, T/C: 101%
[2]
  viability, T/C: 115%
[3]
  viability, T/C: 111%
[4]
  viability, T/C: 107%
[5]
  viability, T/C: 102%
[6]
  viability, T/C: 68.2%
[7]
  viability, T/C: 96%
[8]
  viability, T/C: 97.5%
[9]
  viability, T/C: 99.5%
[10]
  viability, T/C: 83.9%
[11]
  viability, T/C: 66.3%
[12]
  viability, T/C: 60.2%
[13]
  viability, T/C: 64.7%
[14]
  viability, T/C: 62.4%
[15]
  viability, T/C: 66.8%
[16]
  viability, T/C: 76.3%
[17]
  viability, T/C: 61.3%
[18]
  viability, T/C: 47.7%
[19]
  viability, T/C: 49.4%
[20]
  viability, T/C: 49.5%
[21]
  viability, T/C: 45.3%
[22]
  viability, T/C: 48.6%
[23]
  viability, T/C: 42.8%
[24]
  viability, T/C: 35.4%
[25]
  viability, T/C: 36.6%
[26]
  viability, T/C: 39.9%
[27]
  viability, T/C: 34.5%
[28]
  viability, T/C: 33%
[29]
  viability, T/C: 35.9%
[30]
  viability, T/C: 21.2%
[31]
  viability, T/C: 15%
[32]
  viability, T/C: 15.4%
[33]
  viability, T/C: 18.4%
[34]
  viability, T/C: 18.8%
[35]
  viability, T/C: 19.6%
[36]
  viability, T/C: 8.61%

## Cn1ncnc1[C@H]1c2n[nH]c(=O)c3cc(F)cc(c23)N[C@@H]1c1ccc(F)cc1 + Cc1nc(NC(=O)N2CCCC2C(N)=O)sc1-c1ccnc(C(C)(C)C(F)(F)F)c1
Second compound 0.0316 µM
  IC50: > 100 nM
Second compound 0.1 µM
  IC50: > 100 nM
Second compound 0.316 µM
  IC50: > 100 nM
Second compound 1 µM
  IC50: < 0.316 nM
Second compound 3.16 µM
  IC50: < 0.316 nM
Second compound 10 µM
  IC50: < 0.316 nM
Second compound 0.0316 µM, first compound 0.000316 µM
  viability, T/C: 83.8%
Second compound 0.0316 µM, first compound 0.001 µM
  viability, T/C: 81.5%
[37]
  viability, T/C: 94.3%
[38]
  viability, T/C: 84.9%
[1]
  viability, T/C: 90.7%
[2]
  viability, T/C: 90.4%
Second compound 0.1 µM, first compound 0.000316 µM
  viability, T/C: 75.5%
Second compound 0.1 µM, first compound 0.001 µM
  viability, T/C: 78.6%
[39]
  viability, T/C: 78.5%
[40]
  viability, T/C: 80.2%
[7]
  viability, T/C: 80.8%
[8]
  viability, T/C: 78.2%
Second compound 0.316 µM, first compound 0.000316 µM
  viability, T/C: 54.5%
Second compound 0.316 µM, first compound 0.001 µM
  viability, T/C: 59.4%
[41]
  viability, T/C: 57.2%
[42]
  viability, T/C: 57.2%
[13]
  viability, T/C: 58.4%
[14]
  viability, T/C: 58%
Second compound 1 µM, first compound 0.000316 µM
  viability, T/C: 46.2%
Second compound 1 µM, first compound 0.001 µM
  viability, T/C: 43.4%
[43]
  viability, T/C: 40.3%
[44]
  viability, T/C: 41.5%
[19]
  viability, T/C: 44.9%
[20]
  viability, T/C: 45.1%
Second compound 3.16 µM, first compound 0.000316 µM
  viability, T/C: 33%
Second compound 3.16 µM, first compound 0.001 µM
  viability, T/C: 29.4%
[45]
  viability, T/C: 30%
[46]
  viability, T/C: 31.4%
[25]
  viability, T/C: 30.4%
[26]
  viability, T/C: 29%
Second compound 10 µM, first compound 0.000316 µM
  viability, T/C: 17.2%
Second compound 10 µM, first compound 0.001 µM
  viability, T/C: 18%
[47]
  viability, T/C: 16.3%
[48]
  viability, T/C: 13.6%
[31]
  viability, T/C: 18.8%
[32]
  viability, T/C: 12.8%

— PubChem BioAssay AID1963964 (Molecular Pharmacology Branch, DTP, NCI, 2024)
